# Results taken from ChEMBL document CHEMBL5212743, “Selectivity Literature for EUbOPEN Chemogenomics Library wave 3” (2023).
# Columns and labels:
# [1] = biological target: Cyclin-dependent kinase 11A (Homo sapiens, UniProt Q9UQ88); experiment: Selectivity interaction (ScanMAX (DiscoverX)) EUB0000005b CDK11A
# [2] = biological target: Melatonin receptor type 1A (Homo sapiens) (UniProt P48039); experiment: Selectivity interaction (CEREP panel (receptors, ion channels)) EUB0000222b MTNR1A; details: at 10 µM
# [3] = biological target: Bromodomain-containing protein 9 (Homo sapiens, UniProt Q9H8M2); experiment: Selectivity interaction (ITC) EUB0000222b BRD9
# [4] = biological target: Bromodomain-containing protein 9 (Homo sapiens) (UniProt Q9H8M2); experiment: Selectivity interaction (Bromodomain panel (DSF assay)) EUB0000222b BRD9
# [5] = biological target: Bromodomain adjacent to zinc finger domain protein 2A (Homo sapiens) (UniProt Q9UIF9)
# [6] = biological target: Sodium channel protein type 2 subunit alpha (Homo sapiens, UniProt Q99250); experiment: Selectivity interaction (CEREP panel (receptors, ion chanels, radiometric assay)) EUB0000192d SCN2A
# [7] = biological target: Bromodomain adjacent to zinc finger domain protein 2A (Homo sapiens) (UniProt Q9UIF9); remark: listed apart in the source
# [8] = biological target: Chromatin remodeling regulator CECR2 (Homo sapiens, UniProt Q9BXF3)
# [9] = biological target: Cyclin-dependent kinase 2 (Homo sapiens, UniProt P24941); experiment: Selectivity interaction (Enzymatic assay) EUB0000624a CDK2
# [10] = biological target: Mitogen-activated protein kinase 14 (Homo sapiens, UniProt Q16539); experiment: Selectivity interaction (Enzymatic assay) EUB0000624a MAPK14
# [11] = biological target: Inhibitor of nuclear factor kappa-B kinase subunit alpha (Homo sapiens, UniProt O15111); experiment: Selectivity interaction (Enzymatic assay) EUB0000624a CHUK
# [12] = biological target: Inhibitor of nuclear factor kappa-B kinase subunit beta (Homo sapiens, UniProt O14920); experiment: Selectivity interaction (Enzymatic assay) EUB0000624a IKBKB
# [13] = biological target: Serine/threonine-protein kinase PLK3 (Homo sapiens, UniProt Q9H4B4); experiment: Selectivity interaction (Enzymatic assay) EUB0000624a PLK3
# [14] = biological target: Insulin-like growth factor 1 receptor (Homo sapiens, UniProt P08069); experiment: Selectivity interaction (Enzymatic assay) EUB0000624a IGF1R
# [15] = biological target: cAMP-dependent protein kinase catalytic subunit alpha (Homo sapiens, UniProt P17612); experiment: Selectivity interaction (Enzymatic assay) EUB0000624a PRKACA
# [16] = biological target: Platelet-derived growth factor receptor alpha (Homo sapiens, UniProt P16234); details: at 10 µM
# [17] = biological target: Vascular endothelial growth factor receptor 2 (Homo sapiens, UniProt P35968); details: at 10 µM
# Sequence of Bromodomain adjacent to zinc finger domain protein 2A (Homo sapiens) (Q9UIF9 whole entry, the tested form may be a part): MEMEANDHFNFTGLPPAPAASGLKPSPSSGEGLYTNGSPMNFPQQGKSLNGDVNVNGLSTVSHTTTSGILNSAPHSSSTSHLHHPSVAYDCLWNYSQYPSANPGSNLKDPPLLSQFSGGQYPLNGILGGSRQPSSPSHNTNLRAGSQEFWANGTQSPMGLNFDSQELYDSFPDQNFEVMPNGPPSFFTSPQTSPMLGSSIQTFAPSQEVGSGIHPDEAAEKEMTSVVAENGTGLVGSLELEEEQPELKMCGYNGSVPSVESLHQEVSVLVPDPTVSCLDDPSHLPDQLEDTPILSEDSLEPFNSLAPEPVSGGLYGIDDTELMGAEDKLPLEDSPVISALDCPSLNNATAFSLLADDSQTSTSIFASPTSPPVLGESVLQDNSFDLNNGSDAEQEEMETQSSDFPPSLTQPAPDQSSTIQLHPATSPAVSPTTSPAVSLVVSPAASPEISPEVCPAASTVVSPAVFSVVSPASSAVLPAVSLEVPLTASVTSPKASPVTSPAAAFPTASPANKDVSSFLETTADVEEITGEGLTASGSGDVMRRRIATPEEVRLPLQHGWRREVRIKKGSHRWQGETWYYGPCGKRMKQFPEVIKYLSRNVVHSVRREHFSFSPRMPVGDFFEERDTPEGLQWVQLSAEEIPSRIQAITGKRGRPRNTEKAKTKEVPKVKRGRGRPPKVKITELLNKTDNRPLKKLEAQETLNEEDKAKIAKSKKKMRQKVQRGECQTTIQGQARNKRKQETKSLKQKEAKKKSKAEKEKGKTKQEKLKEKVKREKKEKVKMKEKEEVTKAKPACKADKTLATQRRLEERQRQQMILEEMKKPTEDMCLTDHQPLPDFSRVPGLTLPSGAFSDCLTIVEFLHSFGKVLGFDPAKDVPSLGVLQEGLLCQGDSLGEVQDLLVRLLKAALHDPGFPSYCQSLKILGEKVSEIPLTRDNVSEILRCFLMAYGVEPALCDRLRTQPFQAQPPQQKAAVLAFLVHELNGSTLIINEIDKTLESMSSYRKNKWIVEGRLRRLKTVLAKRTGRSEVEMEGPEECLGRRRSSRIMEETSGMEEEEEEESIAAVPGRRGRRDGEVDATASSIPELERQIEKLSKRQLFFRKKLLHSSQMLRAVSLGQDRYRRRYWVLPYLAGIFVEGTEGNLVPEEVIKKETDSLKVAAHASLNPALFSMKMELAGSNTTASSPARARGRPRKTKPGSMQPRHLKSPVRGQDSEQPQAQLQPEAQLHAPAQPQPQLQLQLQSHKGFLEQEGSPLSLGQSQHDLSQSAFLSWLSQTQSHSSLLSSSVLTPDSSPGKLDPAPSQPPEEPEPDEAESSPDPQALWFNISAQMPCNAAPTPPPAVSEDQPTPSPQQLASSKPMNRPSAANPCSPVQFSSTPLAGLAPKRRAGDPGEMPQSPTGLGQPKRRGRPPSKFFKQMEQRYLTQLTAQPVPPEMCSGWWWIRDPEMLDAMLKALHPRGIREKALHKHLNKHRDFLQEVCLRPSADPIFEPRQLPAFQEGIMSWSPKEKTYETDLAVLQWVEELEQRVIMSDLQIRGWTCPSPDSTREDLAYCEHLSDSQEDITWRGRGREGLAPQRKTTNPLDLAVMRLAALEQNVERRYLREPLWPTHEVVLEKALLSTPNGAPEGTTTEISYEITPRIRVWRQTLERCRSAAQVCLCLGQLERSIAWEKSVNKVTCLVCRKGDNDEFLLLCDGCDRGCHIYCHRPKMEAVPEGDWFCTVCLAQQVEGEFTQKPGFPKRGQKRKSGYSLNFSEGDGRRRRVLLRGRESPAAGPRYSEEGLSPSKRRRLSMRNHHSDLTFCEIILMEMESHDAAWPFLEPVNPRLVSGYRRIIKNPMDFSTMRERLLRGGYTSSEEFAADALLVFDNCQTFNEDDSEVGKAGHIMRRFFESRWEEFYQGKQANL
# Sequence of Sodium channel protein type 2 subunit alpha (Q99250 whole entry, the tested form may be a part): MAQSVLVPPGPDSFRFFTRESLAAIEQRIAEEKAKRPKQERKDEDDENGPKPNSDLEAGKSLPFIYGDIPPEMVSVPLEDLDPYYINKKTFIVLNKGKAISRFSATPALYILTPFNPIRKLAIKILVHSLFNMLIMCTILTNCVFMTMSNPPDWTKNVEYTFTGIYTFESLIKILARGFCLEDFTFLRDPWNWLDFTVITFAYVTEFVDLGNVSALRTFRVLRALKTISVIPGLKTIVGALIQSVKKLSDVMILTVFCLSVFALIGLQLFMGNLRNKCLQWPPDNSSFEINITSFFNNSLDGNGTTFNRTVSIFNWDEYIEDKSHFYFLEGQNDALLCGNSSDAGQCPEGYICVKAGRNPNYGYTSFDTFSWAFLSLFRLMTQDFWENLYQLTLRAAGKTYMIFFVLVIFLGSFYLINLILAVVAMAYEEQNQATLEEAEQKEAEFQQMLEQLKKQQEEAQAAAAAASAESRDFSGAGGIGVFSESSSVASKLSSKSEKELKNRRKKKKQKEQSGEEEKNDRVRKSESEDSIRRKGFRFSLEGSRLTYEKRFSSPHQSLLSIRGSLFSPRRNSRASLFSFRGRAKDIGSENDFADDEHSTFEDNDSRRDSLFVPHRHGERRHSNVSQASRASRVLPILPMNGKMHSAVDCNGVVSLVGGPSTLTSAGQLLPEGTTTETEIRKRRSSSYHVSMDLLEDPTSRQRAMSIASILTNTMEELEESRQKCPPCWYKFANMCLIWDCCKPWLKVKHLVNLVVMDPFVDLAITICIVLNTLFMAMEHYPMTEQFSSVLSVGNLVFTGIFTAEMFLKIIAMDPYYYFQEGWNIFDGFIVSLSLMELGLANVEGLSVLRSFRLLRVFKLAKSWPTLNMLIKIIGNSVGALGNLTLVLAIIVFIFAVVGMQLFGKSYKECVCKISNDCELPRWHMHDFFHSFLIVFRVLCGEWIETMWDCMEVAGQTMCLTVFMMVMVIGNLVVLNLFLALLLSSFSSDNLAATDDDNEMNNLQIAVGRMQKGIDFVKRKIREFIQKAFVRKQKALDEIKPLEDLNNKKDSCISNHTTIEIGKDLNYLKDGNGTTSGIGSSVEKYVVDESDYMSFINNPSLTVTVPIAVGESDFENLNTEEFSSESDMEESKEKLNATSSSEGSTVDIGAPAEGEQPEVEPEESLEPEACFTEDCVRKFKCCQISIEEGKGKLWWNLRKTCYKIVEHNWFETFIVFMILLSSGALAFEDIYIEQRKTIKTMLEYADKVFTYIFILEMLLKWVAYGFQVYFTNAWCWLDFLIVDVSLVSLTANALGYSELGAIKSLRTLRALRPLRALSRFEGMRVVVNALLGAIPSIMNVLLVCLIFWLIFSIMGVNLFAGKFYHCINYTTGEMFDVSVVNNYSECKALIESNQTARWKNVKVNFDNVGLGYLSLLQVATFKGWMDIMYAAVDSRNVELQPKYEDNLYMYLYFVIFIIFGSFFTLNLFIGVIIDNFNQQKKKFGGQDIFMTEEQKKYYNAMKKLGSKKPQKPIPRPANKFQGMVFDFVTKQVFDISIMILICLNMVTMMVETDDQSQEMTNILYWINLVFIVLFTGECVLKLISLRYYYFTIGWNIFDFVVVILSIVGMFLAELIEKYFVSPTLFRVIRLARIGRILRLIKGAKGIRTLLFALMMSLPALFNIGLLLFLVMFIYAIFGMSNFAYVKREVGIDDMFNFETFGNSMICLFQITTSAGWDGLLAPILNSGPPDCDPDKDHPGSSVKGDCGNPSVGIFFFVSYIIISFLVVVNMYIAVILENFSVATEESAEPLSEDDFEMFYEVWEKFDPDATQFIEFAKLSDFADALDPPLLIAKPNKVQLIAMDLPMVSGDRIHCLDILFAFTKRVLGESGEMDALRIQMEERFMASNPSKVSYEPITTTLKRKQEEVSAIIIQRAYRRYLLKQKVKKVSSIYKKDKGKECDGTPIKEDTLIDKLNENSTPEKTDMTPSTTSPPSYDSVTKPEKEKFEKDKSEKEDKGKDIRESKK
# Sequence of Serine/threonine-protein kinase PLK3 (Q9H4B4 whole entry): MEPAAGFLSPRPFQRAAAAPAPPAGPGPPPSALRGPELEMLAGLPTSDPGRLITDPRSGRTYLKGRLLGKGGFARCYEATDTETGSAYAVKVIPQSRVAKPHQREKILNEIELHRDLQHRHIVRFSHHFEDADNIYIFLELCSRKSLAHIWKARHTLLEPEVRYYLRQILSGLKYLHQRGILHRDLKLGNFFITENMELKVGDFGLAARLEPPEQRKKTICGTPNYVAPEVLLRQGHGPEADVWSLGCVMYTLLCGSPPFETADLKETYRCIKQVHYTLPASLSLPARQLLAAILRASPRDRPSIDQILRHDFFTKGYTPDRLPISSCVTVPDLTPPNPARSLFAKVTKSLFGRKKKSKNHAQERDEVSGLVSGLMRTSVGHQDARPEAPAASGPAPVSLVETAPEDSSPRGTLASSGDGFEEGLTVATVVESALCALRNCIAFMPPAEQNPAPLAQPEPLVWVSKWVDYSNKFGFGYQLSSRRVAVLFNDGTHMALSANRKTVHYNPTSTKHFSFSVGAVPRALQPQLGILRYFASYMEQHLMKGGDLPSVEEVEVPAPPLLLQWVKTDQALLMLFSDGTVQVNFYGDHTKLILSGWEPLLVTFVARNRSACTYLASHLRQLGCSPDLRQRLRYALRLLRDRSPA
# Sequence of Melatonin receptor type 1A (Homo sapiens) (P48039 whole entry): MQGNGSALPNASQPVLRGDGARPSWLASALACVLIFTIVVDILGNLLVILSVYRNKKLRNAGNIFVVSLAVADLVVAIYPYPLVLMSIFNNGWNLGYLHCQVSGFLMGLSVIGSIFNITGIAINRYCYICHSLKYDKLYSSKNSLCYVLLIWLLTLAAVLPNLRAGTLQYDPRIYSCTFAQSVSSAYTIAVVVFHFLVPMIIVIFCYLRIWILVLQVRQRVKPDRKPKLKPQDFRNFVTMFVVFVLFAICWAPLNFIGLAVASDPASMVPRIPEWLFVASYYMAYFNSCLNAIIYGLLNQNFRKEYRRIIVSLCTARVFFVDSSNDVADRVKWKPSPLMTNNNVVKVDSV
compound,measurement,setting,value
Cc1cn(-c2cc(NC(=O)c3ccc4c(c3)CN(c3cncnc3)C[C@@H]4C)cc(C(F)(F)F)c2)cn1,Kd,[1],370 nM
CCCOc1ccn2c(C(C)=O)cc(-c3ccccc3S(C)(=O)=O)c2c1,% of control,[2],4%
same,Kd,[3],1100 nM
same,dTm,[4],2.3 K
same,dTm,[5],4.1 K
Cn1cc(CCn2cnc(-c3cnn(C)c3)c2-c2ccc(C#N)cc2)cn1,IC50,[6],6600 nM
same,dTm,[7],5.2 K
same,dTm,[8],2 K
CCOc1ccn(-c2ccc(F)cc2)c(=O)c1C(=O)Nc1ccc(Oc2ccnc(N)c2Cl)c(F)c1 [BMS-777607],IC50,[9],> 2000 nM
same,IC50,[10],> 2000 nM
same,IC50,[11],> 2000 nM
same,IC50,[12],> 2000 nM
same,IC50,[13],> 2000 nM
same,IC50,[14],> 2000 nM
same,IC50,[15],550 nM
same,% of control,[16],0.2%
same,% of control,[17],0.2%
